Experimental data taken from patent US11274131B2, “IgM-mediated receptor clustering and cell modulation” (MAYO FOUNDATION FOR MEDICAL EDUCATION AND RESEARCH, priority 2007, dated 2022).

Assays:
[1] = system: matured mouse DC; experiment: Antigen uptake assay, matured mouse DC; format: cell-based
Experimental: For transducing DC with the virus, 1 ml of supernatant containing the scrambled virus or shDNA containing dominant negative TREM-2 virus was mixed with 2 ml of RPMI. Cytokines were added to a final concentration of 10 ng/ml murine GM-CSF and 1 ng/ml murine IL-4 at day 2 of DC culture. Cells were maintained for another 3 days before using the DC for antigen uptake assay as mentioned above or for analysis of phosphorylation status of DAP12 and Syk proteins.
Antigen uptake experiments were carried out as described previously (Radhakrishnan et al. (2005) Proc. Natl. Acad. Sci. U.S.A. 102:11438-11443). Day 5 DC were matured with TLR ligand CpG-ODN for mouse DC, or with pI:C for human DC. The matured cells were incubated with ovalbumin labeled with FITC or APC and control antibody or B7-DC XAb for two hours, washed and analyzed by FACSCALIBUR™ (Becton Dickinson). In studies involving inhibitors, cells were pretreated 30 minutes as indicated or at 10 μM concentration prior to addition of control antibody or B7-DC XAb. In vivo antigen uptake assays involving wild type or TREM-2−/− mice were carried out by intravenous injection of 10 μg of control antibody or B7-DC XAb on three consecutive days (days −1, 0 and +1). Ovalbumin coupled to FITC was injected in the right foot pad at 1 mg/ml in PBS at […]. The draining lymph node cells were harvested 48 hours after injection of antigen, and stained with anti-mouse CD11c-PE. The data are expressed as percent green cells (ovalbumin-FITC) that are positive for CD11c.

[2] = system: NF-κB; experiment: NFκB activation assay in mouse DC; format: cell-based
Experimental: DC of murine or human origin were stimulated with 10 μg/ml of control antibody or the MTAb B7-DC XAb for 30 minutes, while stimulation of oligodendrocytes was achieved by addition of 10 μg/ml of MTAb sHIgM39, 04, or sHIgM22 for same period of time. All groups were fixed and permeabilized using a Cytofix/Cytoperm Kit (BD PharMingen, San Diego, Calif.) for 20 minutes on ice. Subsequently, rabbit antibody against a C terminal peptide of NF-kB (sc372) was added, incubated for 30 minutes at 4° C. and washed three times with Cytoperm Buffer. Anti-rabbit FITC was used to detect the bound sc372 antibody by incubating the cells for 30 minutes (green). Cells were washed three times before the nuclei were stained with DAPI (blue) (Sigma Aldrich). The cells were then harvested from the plate, cytospin slides were made, and cells were visualized using a LSM510 Laser scanning confocal microscope (Carl-Zeiss Inc, Oberkochen, Germany) at 40.times magnification.

[3] = system: mouse DC; experiment: Calcium flux assay, mouse DC; format: cell-based
Experimental: (§1) Changes in the levels of intracellular Ca^2+ were assessed in Indol-loaded cells by flow cytometry as described previously (Takahashi et al. (2005) J. Exp. Med. 201:647-657). Briefly, 5×10^6 DC/ml were incubated with 5 μM Indo-1 (Calbiochem) at 37° C. for 30 minutes. The cells were washed twice in serum free media and resuspended at 10^6/ml in PBS containing 0.5% BSA. The samples were analyzed by flow cytometry using a UV laser. Violet (390 nm) and blue (500 nm) fluorescence emissions were recorded. Baseline was recorded for two minutes. Antibody was added to the cell suspension (10 μg/ml of control antibody or B7-DC XAb) and the measurements were recorded for 8 additional minutes. In blocking experiments, mouse or human DC were pre-incubated with 10 μg/ml of purified anti-mouse B7-DC antibody (TY-25) or purified anti-human B7-DC antibody (MIH18) for 15 minutes, followed by collection of data for calcium flux as described above. Ionomycin added at 1 μg/ml after 2 minutes served as a positive control. The blue to violet ratio was calculated using FlowJo software (Tristar, Ashland, Oreg.).

[4] = system: human DC; experiment: Calcium flux assay, human DC; format: cell-based
Experimental: as §1

[5] = system: bone-marrow derived DCs; experiment: FRET on DCs expressing Kb-peptide constructs; format: cell-based, mouse
Experimental: Kb, Kb-12p9A, Kb-22p3, and Kb-22p12p were placed in a VSV-G pseudotyped pBabe Puro retroviral vector, a vector based on the Maloney Murine Retrovirus. […] Retrovirus was produced by transient […] of 293T cells, and supernatant was concentrated 100:1 by ultracentrifugation on a 10% sucrose cushion. The retrovirus was titered with a colony forming unit assay of HT-1080 cells transduced with limiting dilutions of the supernatant concentrate, followed by selection with 2 ug/mL puromycin. To make DCs, bone marrow was harvested from Balb/c, C57BL6 mice or B7DC−/− mice on a C57BL6 background.
Bone marrow was placed in RPMI+10% Cosmic Calf Serum with 1 ng/mL IL-4 and 10 ng/mL GM-CSF, and plated at 10^6/mL in 24 well plates. On day 2 post-plating, media was aspirated; fresh media was added with 0.5 MOI retrovirus and 4 ug/mL polybrene. Using this system, the peptide constructs were expressed in cultured DCs (FIG. 13).
To directly compare the activity of the MTabs hIgM12 and hIgM22, a series of well-defined biological outputs of treatment of wild type DCs with hIgM12 was used. FRET was used as an output for formation of the multimolecular cap seen upon binding of hIgM12 to wild type DCs. The emission of phycoerythrin (PE) was used to excite APC, which normally emits in the FL4 channel but under FRET emits in the FL3 channel. Experiments were conducted to test FRET of CD40-PE to Class II APC, and CD80-PE to Class II APC (FIG. 14). Either wild type C57BL6 DCs or B7DC−/− DCs transduced with either B7DC or the Kb constructs were used. DCs were stained with the fluorochrome-labeled antibodies, and then treated for 15 minutes at 37° C. with 10 μg/mL of either hIgM12, hIgM22, or 28-13-3.

[6] = system: B7-DC (PD-L2); details: cited from earlier work

Substance: B7-DC XAb: human monoclonal IgM from a Waldenstrom's macroglobulinemia patient that binds and cross-links B7-DC on DC
- antigen uptake ([1]; DC from CD40 KO mice): displayed enhanced antigen uptake
- ovalbumin uptake by matured DC ([1]; DC transduced with scrambled shDNA): enhanced ovalbumin uptake
- ovalbumin uptake by matured DC ([1]; TREM-2 KO DC): did not regain the ability to take up ovalbumin
- NF-κB activation ([2]; DC from CD40 KO mice): absence of NF-κB activation
- NF-κB activation ([2]; DC from wild type mice): activating NF-κB
- NF-κB mobilization ([2]; TREM-2 KO cells): mobilization of NF-κB
- intracellular calcium signal [3]: prolonged calcium signals
- intracellular calcium signal [4]: prolonged calcium signals
- FRET response ([5]; B7DC−/− DCs with restored B7DC expression): responded as well
- FRET response ([5]; B7DC−/− Kb-12p9A DCs): responded
- FRET response ([5]; B7DC−/− Kb-22p12p DCs): responded
- FRET response (CD40-PE or CD80-PE to Class II APC) ([5]; wild type DCs, 10 μg/mL, 15 minutes): responded
- binding to B7-DC on the surface of DC [6]: binds
